Test results taken from paper PMC4113355, “Carbamoylating Activity Associated with the Activation of the Antitumor Agent Laromustine Inhibits Angiogenesis by Inducing ASK1-Dependent Endothelial Cell Death” (PLoS ONE, 2014).

Target: T1, Trx reductase-1 (TrxR1) (Rattus norvegicus, UniProt O89049)
T1 construct: gene Txnrd1
T1 sequence (O89049 1-499): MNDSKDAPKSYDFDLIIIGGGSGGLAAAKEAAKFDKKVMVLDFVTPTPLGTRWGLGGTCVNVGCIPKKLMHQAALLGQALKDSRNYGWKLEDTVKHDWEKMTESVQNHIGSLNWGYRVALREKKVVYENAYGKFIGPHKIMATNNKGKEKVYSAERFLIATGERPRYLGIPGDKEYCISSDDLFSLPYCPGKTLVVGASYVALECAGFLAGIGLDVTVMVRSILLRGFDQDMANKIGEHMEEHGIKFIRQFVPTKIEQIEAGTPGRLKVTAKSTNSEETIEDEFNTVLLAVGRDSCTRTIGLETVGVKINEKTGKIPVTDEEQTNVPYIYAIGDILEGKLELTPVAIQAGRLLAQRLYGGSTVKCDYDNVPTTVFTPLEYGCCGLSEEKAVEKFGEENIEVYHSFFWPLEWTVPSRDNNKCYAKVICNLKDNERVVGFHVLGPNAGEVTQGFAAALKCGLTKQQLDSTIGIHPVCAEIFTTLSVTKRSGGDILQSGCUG
Test: DTNB reduction assay with purified TrxR1, […] h pre-incubation with NADPH at pH […]

| SMILES | IC50 [µM] |
| --- | --- |
| CNC(=O)N(N(CCCl)S(C)(=O)=O)S(C)(=O)=O [Laromustine, 1,2-bis(methylsulfonyl)-1-(2-chloroethyl)-2-[(methylamino)carbonyl]hydrazine] | 5 ± 1.1 |
| O=NN(CCCl)C(=O)NCCCl [BCNU, 1,3-bis(2-chloroethyl)-1-nitrosourea] | 5.4 ± 1.4 |
| CNC(=O)N(NS(C)(=O)=O)S(C)(=O)=O [101MDCE, 1,2-bis(methylsulfonyl)-1-[(methylamino)carbonyl]hydrazine] | 9.9 ± 3.1 |
